Measured values as given in patent US20190337971A1, “PANTETHEINE DERIVATIVES FOR THE TREATMENT OF NEUROLOGIC DISORDERS” (Retrophin, Inc., priority 2016, published 2019).
Like-named read-outs stand apart in the source and are kept apart here.

Key:
[1] = Stability in human whole blood; type: in vitro ADME; settings: 37° C., up to 60 min
Procedure: The stability of selected compounds in human whole blood was evaluated according to the following protocol. Compounds and positive control samples were dissolved in 100% DMSO at 3 mM (stock solution). To investigate the stability of the test compounds in whole blood, a 200 μM working solution (WS) in water has been prepared by adding 66.66 μl of each 3 mM stock solution to 933.34 μl of water (6.66% DMSO content). After pre-incubation of the whole blood at 37° C. for 5 min in an eppendorf, 10.5 μl of each working solution were spiked into 689.5 μl of heated blood. The obtained 3 μM solution in blood (0.1% DMSO content) was quickly stirred and 100 μl for each time point were transferred to an eppendorf. Each compound was tested in duplicate at five time points (10, 20, 30, 40 and 60 min). At each time point, the reaction was stopped by quenching the spiked blood (100 μl) with 400 μl of 100% acetonitrile containing 0.1% formic acid. Then samples were centrifuged at 15600 rpm for 15 min at +4° C. and 200 μl of supernatant were transferred to a 96-deepwell plate. Samples were evaporated under N2 and reconstituted in H2O/ACN 0.1% formic Acid (98/2 v/v) containing the appropriate internal standard. Analysis was performed without a calibration curve by using an Acquity-UPLC (Waters) coupled to a triple quadrupole mass spectrometer (SciexAPI4000). Time point 0 was obtained by adding 3 μL of each 200 μM working solution to 997 μL of the supernatant obtaining after centrifugation (15600 rpm for 15 min at +4° C.) of the blank matrix quenched with acetonitrile containing 0.1% formic acid.
Stability was determined based on analysis of disappearance of the compounds as a function of incubation time. Quantification of test compounds was measured as a peak area relative to an internal standard. The elimination constant k and half-life (t1/2) were determined as described above in Example 7.

[2] = system: PANK2−/− IMR32 cells; experiment: Coenzyme A assay in PANK2 silenced cells (LC-MS quantification of free CoA); type: cell-based, human; settings: fold increase in CoA levels relative to controls, treated twice, 24 h + 24 h; for fold induction at 50 µM: compound concentration 50 uM; for fold induction at 1 µM: compound concentration 1 uM
Procedure: A human neuroblastoma IMR32 cell line (ATCC) with stably PANK2 silencing was obtained by lentiviral-delivered small hairpin RNA and cultured in MEM (Invitrogen) supplemented with 10% fetal bovine serum, 2 mM glutamine, 1% penicillin-streptomycin, 1 mM sodium pyruvate, 1 mM non-essential amino acids, and 1.5 g/l sodium bicarbonate.
A non-silencing shRNA construct (scrambled shRNA) and an empty vector expressing GFP alone were used as negative controls. The GFP tag subcloned into the lentiviral vectors was used to monitor the transfection efficiency.
Three days after transduction medium was removed and replaced with fresh medium containing […] puromycin. […] The level of PANK2 expression in selected clones was assessed by Western Blot analysis.
To quantify CoA, PANK2−/− IMR32 cells were plated on 12-well culture plates (Corning) at a density of 0.2×10^6 cells per well. […] Controls with medium containing 0.1% DMSO without test compounds were also included in each plate. […] Before LC-MS analysis of CoA levels, cells were harvested, counted, and collected in a 15 ml falcon tube and centrifuged at 200×g for 5 min at 4° C. Supernatant was removed and cell pellet was washed in 10 ml of ice-cold PBS. To further confirm that the numbers of cells in each sample were equivalent, an equal fraction of pellet was collected from each sample and subjected to protein determination analysis. After centrifugation and supernatant removal, the cell pellet was rapidly frozen in Liquid Nitrogen and stored at −80° C. until analysis.
Intracellular CoA levels were calculated considering an intracellular volume of 1 million cells=2 μl.
The 1*10^6 cellular pellet was extracted with 120 μl of aqueous 20% TFA.
100 μL samples of supernatant were dried under N2 at 20° C. in the dark.
Samples were re-dissolved in 100 μl of 10 mM NH4^+ AcO^− buffer pH 5.1+IS (Dextrorphan 50 ng/ml), stirred for 2 min, sonicated in ultrasonic bath for 1 min, then stirred again for 1 min, and injected into LC-MS.
LC-MS/MS was performed using an Agilent HPLC (1100 Series, USA). The LC system was interfaced with an API-4000 Q-Trap triple quadrupole mass spectrometer (AB Sciex, Toronto, Canada) equipped with a TurboIonSpray ionization source operating in positive ion mode. Analyst™ software version 1.6 (AB Sciex, Toronto, Canada) was used for data acquisition and processing. CoA was separated using a Luna C18 column (2.0×50 mm; 5 μm particle size), column at 25° C. and flow rate of 0.2 ml/min. Injection volume was 15 μl. The mobile phases consisted of water containing 10 mM ammonium acetate pH 7 (mobile phase A) and MeCN-2-propanol 9:1 (mobile phase B).
Results are expressed as fold increase in CoA levels relative to controls (using LC-MS quantification of free CoA).

[3] = Diastereoisomer A (upfield shift in 31P NMR), read-out: t1/2 (h) Human Whole Blood Diastereoisomer A (converted)
[4] = Diastereoisomer B, read-out: t1/2 (h) Human Whole Blood Diastereoisomer B (converted)

Structure (SMILES)	half-life at 3 μM [1, 3]	fold induction at 50 µM ([2]; Homo sapiens, IMR-32)	half-life at 3 μM [1, 4]	further results
CC(=O)SCCNC(=O)CCNC(=O)[C@@H]1OP(=O)(OCOC(=O)NC(C)(C)COC(=O)[C@@H](N)C(C)C)OCC1(C)C (stereo partly drawn) [R1012, 2-((((((4R)-4-((3-((2-(acetylthio)ethyl)amino)-3-oxopropyl)carbamoyl)-5,5-dimethyl-2-oxido-1,3,2-dioxaphosphinan-2-yl)oxy)methoxy)carbonyl)amino)-2-methylpropyl L-valinate]	0.41 h	1.5	–	–
CC(=O)SCCNC(=O)CCNC(=O)[C@@H]1O[P@](=O)(OCOC(=O)c2cc(C(C)(C)C)n[nH]2)OCC1(C)C [R1019, (((2R,4R)-4-((3-((2-(acetylthio)ethyl)amino)-3-oxopropyl)carbamoyl)-5,5-dimethyl-2-oxido-1,3,2-dioxaphosphinan-2-yl)oxy)methyl 3-(tert-butyl)-1H-pyrazole-5-carboxylate]	–	–	< 0.16 h	fold induction at 1 µM ([2]; Homo sapiens, IMR-32): 28.8
CC(=O)SCCNC(=O)CCNC(=O)[C@@H]1O[P@](=O)(OCOC(=O)NCCOC(=O)C(C)(C)C)OCC1(C)C [R1031, 2-((((((2R,4R)-4-((3-((2-(acetylthio)ethyl)amino)-3-oxopropyl)carbamoyl)-5,5-dimethyl-2-oxido-1,3,2-dioxaphosphinan-2-yl)oxy)methoxy)carbonyl)amino)ethyl pivalate]	0.41 h	23.2	0.25 h	–
CC(=O)SCCNC(=O)CCNC(=O)[C@@H]1OP(=O)(OCOC(=O)c2ccnn2C)OCC1(C)C (stereo partly drawn) [R1011, (((4R)-4-((3-((2-(acetylthio)ethyl)amino)-3-oxopropyl)carbamoyl)-5,5-dimethyl-2-oxido-1,3,2-dioxaphosphinan-2-yl)oxy)methyl 1-methyl-1H-pyrazole-5-carboxylate]	0.42 h	102	< 0.16 h	–
CC(=O)SCCNC(=O)CCNC(=O)[C@@H]1OP(=O)(OCOC(=O)N[C@@H](CSC(=O)C(C)(C)C)C(=O)O)OCC1(C)C (stereo partly drawn) [R1013, N-(((((4R)-4-((3-((2-(acetylthio)ethyl)amino)-3-oxopropyl)carbamoyl)-5,5-dimethyl-2-oxido-1,3,2-dioxaphosphinan-2-yl)oxy)methoxy)carbonyl)-S-pivaloyl-L-cysteine]	0.78 h	1	0.6 h	–
CC(=O)OCOP1(=O)OCC(C)(C)[C@H](C(=O)NCCC(=O)NCCSC(C)=O)O1 (stereo partly drawn) [R1022, (((4R)-4-((3-((2-(acetylthio)ethyl)amino)-3-oxopropyl)carbamoyl)-5,5-dimethyl-2-oxido-1,3,2-dioxaphosphinan-2-yl)oxy)methyl acetate]	< 0.16 h	114	< 0.16 h	–
CC(=O)SCCNC(=O)CCNC(=O)[C@@H]1OP(=O)(OCOC(=O)NCCSC(=O)[C@@H](N)C(C)C)OCC1(C)C (stereo partly drawn) [R1021, S-(2-((((((4R)-4-((3-((2-(acetylthio)ethyl)amino)-3-oxopropyl)carbamoyl)-5,5-dimethyl-2-oxido-1,3,2-dioxaphosphinan-2-yl)oxy)methoxy)carbonyl)amino)ethyl) (2S)-2-amino-3-methylbutanethioate]	0.32 h	3.7	–	–
CC(=O)SCCNC(=O)CCNC(=O)[C@@H]1OP(=O)(OCOC(=O)NCCOC(=O)[C@@H](N)C(C)C)OCC1(C)C (stereo partly drawn) [R1032, 2-((((((4R)-4-((3-((2-(acetylthio)ethyl)amino)-3-oxopropyl)carbamoyl)-5,5-dimethyl-2-oxido-1,3,2-dioxaphosphinan-2-yl)oxy)methoxy)carbonyl)amino)ethyl L-valinate]	–	1	–	–
COC(=O)[C@H](CSC(=O)C(C)(C)C)NC(=O)OCOP1(=O)OCC(C)(C)[C@H](C(=O)NCCC(=O)NCCSC(C)=O)O1 (stereo partly drawn) [R1020, methyl N-(((((4R)-4-((3-((2-(acetylthio)ethyl)amino)-3-oxopropyl)carbamoyl)-5,5-dimethyl-2-oxido-1,3,2-dioxaphosphinan-2-yl)oxy)methoxy)carbonyl)-S-pivaloyl-L-cysteinate]	0.65 h	74.2	–	–
COc1ccc(C(=O)OCOP2(=O)OCC(C)(C)[C@H](C(=O)NCCC(=O)NCCSC(C)=O)O2)cc1 (stereo partly drawn) [R1035, (((4R)-4-((3-((2-(acetylthio)ethyl)amino)-3-oxopropyl)carbamoyl)-5,5-dimethyl-2-oxido-1,3,2-dioxaphosphinan-2-yl)oxy)methyl 4-methoxybenzoate]	–	–	–	fold induction at 1 µM ([2]; Homo sapiens, IMR-32): 18
COC(=O)[C@H](C)N[P@]1(=O)OCC(C)(C)[C@H](C(=O)NCCC(=O)NCCSC(C)=O)O1 [R1004, methyl ((2S,4R)-4-((3-((2-(acetylthio)ethyl)amino)-3-oxopropyl)carbamoyl)-5,5-dimethyl-2-oxido-1,3,2-dioxaphosphinan-2-yl)-L-alaninate]	–	2.1	–	–
COC(=O)[C@@H](N[P@]1(=O)OCC(C)(C)[C@H](C(=O)NCCC(=O)NCCSC(C)=O)O1)C(C)C [R1015, methyl ((2S,4R)-4-((3-((2-(acetylthio)ethyl)amino)-3-oxopropyl)carbamoyl)-5,5-dimethyl-2-oxido-1,3,2-dioxaphosphinan-2-yl)-L-valinate]	–	2.1	> 1 h	–
CC(=O)SCCNC(=O)CCNC(=O)[C@@H]1OP(=O)(OCOC(=O)c2cc(C(C)(C)C)nn2C)OCC1(C)C (stereo partly drawn) [R1010, (((4R)-4-((3-((2-(acetylthio)ethyl)amino)-3-oxopropyl)carbamoyl)-5,5-dimethyl-2-oxido-1,3,2-dioxaphosphinan-2-yl)oxy)methyl 3-(tert-butyl)-1-methyl-1H-pyrazole-5-carboxylate]	–	–	–	fold induction at 1 µM ([2]; Homo sapiens, IMR-32): 200
CC(=O)SCCNC(=O)CCNC(=O)[C@@H]1O[P@@](=O)(Oc2ccccc2)OCC1(C)C [R1041, S-(2-(3-((2S,4R)-5,5-dimethyl-2-oxido-2-phenoxy-1,3,2-dioxaphosphinane-4-carboxamido)propanamido)ethyl) ethanethioate]	–	–	–	PANK2−/− CoA Fold increase ([2]; compound concentration 10 uM): 1.8 fold
CC(=O)OCCNC(=O)OCOP1(=O)OCC(C)(C)[C@H](C(=O)NCCC(=O)NCCSC(C)=O)O1 (stereo partly drawn) [R1025, 2-((((((4R)-4-((3-((2-(acetylthio)ethyl)amino)-3-oxopropyl)carbamoyl)-5,5-dimethyl-2-oxido-1,3,2-dioxaphosphinan-2-yl)oxy)methoxy)carbonyl)amino)ethyl acetate]	–	–	–	fold induction at 10 µM ([2]; Homo sapiens, IMR-32, compound concentration 10 uM): 1.4
